From US12263182B2, “Method of introducing an mRNA molecule into a cell” (PCI Biotech AS, priority 2018, dated 2025)

How the values were obtained:
[1] = system: TC-1 tumours; experiment: Intratumoural luciferase mRNA delivery with PCI (red light 652 nm), luciferase enzymatic assay on tumour homogenates; type: in vivo, mice; conditions: Example 2
Procedure: An experiment was performed to study in vivo naked mRNA delivery to TC-1 tumours (model for HPV-induced tumours) in mice.
In these experiments the TC-1 tumour model for HPV-induced cancer was employed. mRNA delivery was assessed by performing a luciferase enzymatic assay on homogenates from tumours harvested the day after illumination. Red light laser light illumination with a wavelength of 652 nm was used. The experiment was performed as follows: • Luciferase mRNA (L-7202 CleanCap™ FLuc mRNA (5moU)) from TriLink, 3 μg per injection) was mixed with TPCS2a and injected into the tumours in an injection volume of 20 μl. • 60 min after mRNA/TPCS2a injection the tumours were illuminated with different doses of red laser light (at 652 nm) for 12.5-500 seconds. • The day after illumination, all tumours were removed and frozen for later enzymatic assay for luciferase (Luciferase Assay System, Promega, Cat #E1500). • The protein content in the samples was measured with the RC DC Protein Assay kit (BioRad) assay, and the relative amounts of active luciferase in each sample was calculated as Relative Luminescence Units (RLU: Arbitrary units) per mg of protein.

[2] = system: skin of mice; experiment: Intradermal naked luciferase mRNA delivery with PCI, bio-luminescence imaging (IVIS) of injection sites; type: in vivo; conditions: for effect on mRNA delivery (fold increase in luminescence vs mRNA only): Example 1C, 2 μg unmodified mRNA L-6307, 0.003 μg TPCS2a
Procedure: Firefly luciferase mRNA (1921 nucleotides in length; L-6107—with modified bases 5-methylcytidine (5meC) and pseudo-uridine (ψ); L-6307—unmodified mRNA; L-7202—with modified base 5-methoxyuridine (5moU), and with the TriLink CleanCap™ modification as the capping structure, purchased from TriLink Biotechnologies, San Diego, USA) and TPCS2a (Amphinex®, PCI Biotech AS, Norway) were mixed in a volume of 20 μl PBS and the mixture was injected into the skin of mice at time 0. Different doses were used in different experiments, and in control samples no TPCS2a was used. Injections were performed in 4 sites (A-D) per mouse (see FIG. 1 and diagram and table below), and the injection sites were illuminated in general 60 min after mRNA/TPCS2a injection. With this set-up the two sites in each animal not receiving TPCS2a act as controls internal to each animal. This is useful for being able to correct for possible differences between animals e.g. in the injection and distribution of luciferin prior to the bio-luminescence imaging.
Injection sites were illuminated with blue light (wavelength between 400 and 540 nm with a peak at around 435 nm) from the LumiSource illumination device.
4-6 or 20-24 hours after illumination luciferase activity at the injection sites was analysed by bio-luminescence imaging in the IVIS instrument (IVIS Spectrum, model 124375R from PerkinElmer). Pictures were taken 20 min after luciferin injection, and bio-luminescence in a defined region-of-interest (ROI) around each injection site was quantified. The procedure for IVIS imaging was as follows: i) The mice were given an intraperitoneal injection of 3 mg D-Luciferin (200 μl of 15 mg/ml stock).
ii) After approximately 10 min, the mice were anaesthetized by a subcutaneous injection of Zoletil (10-15 mg/kg xylasin, 5-10 mg/kg butorphanol and 15-20 mg/kg Zoletil (containing zolazepam and tiletamine)).
iii) 20 min after D-luciferin injection, mice were placed in the IVIS instrument and pictures were taken with automatic exposure of Luminescence (Andor camera IS0825R4582; iKon Living Image version: 4.5.2.18424. Binning factor: 8; Excitation filter: Block; Emission filter: Open; f Number: 1)
iv) The bio-luminescence in ROIs covering each injection site was measured to quantify luciferase expression. The detailed set-up of a typical experiment (Example 1) can be found in Table 1.
Animals were injected by mRNA and TPCS2a as described under Methods and treated as described in Table 1 with the sites shown in FIG. 8.
3 μg mRNA and different amounts of TPCS2a (ranging from 0.0003 μg to 10 μg) were mixed and injected into the skin of mice as described under Methods. 60 min after the injections the mice were illuminated for 6 (in general) or 3 min (in one case) with blue light from the LumiSource illumination device. The animals were injected with luciferin and imaged in the IVIS instrument as described under Methods. The luminescence in defined regions of interest round the injection sites was assessed in the IVIS instrument. For each animal the luminescence at the sites receiving mRNA+TPCS2a was compared to the luminescence at the sites receiving mRNA only, and the fold increase (FI) in luminescence at the TPCS2a injected sites in each animal was calculated by the formula FI=luminescencemRNA+TPCS2a/luminescencemRNA only. […]
Lipofectamine is a very efficient transfection agent commonly used for delivery of mRNA and other nucleic acids; and it has also been used for mRNA delivery in vivo (Zangi et al., 2013, supra). However several type of toxic reactions have been observed with in vivo use of lipofectamine, limiting the possibilities for clinical use of this transfection agent. […]

[3] = system: MC-38 tumours; experiment: Intratumoural luciferase mRNA delivery with PCI (blue light), luciferase enzymatic assay on tumour homogenates; type: in vivo, mice; conditions: Example 3, 6 min blue light
Procedure: An experiment was performed to study in vivo naked mRNA delivery to colon adenocarcinoma tumours (MC-38 tumours) in mice.
The experiment was performed with Luciferase-encoding modified mRNA, and the effect was analysed by an enzymatic luciferase assay on tumour extracts, with tumours harvested 20 hours after illumination. Each animal had two tumours (A and B) that were injected and analysed separately.
TriLink modified luciferase mRNA (T14-GU03A), 3 μg was used per injection.
Female mice of the strain C57BL/6 (Charles River) were be used. Animal identification and conditions of housing, acclimatisation, environment, diet and water was in accordance with the current Standard Operating Procedures at the animal facilities at Oslo University Hospital—The Radium Hospital.
The animals were inoculated with 500 000 MC-38 cells per tumour, 2 tumours per animal. The size of the tumours on mRNA injection was 60-150 mm^3. Animals were randomized by tumour volume, animals with tumour ulcers were excluded. mRNA was mixed with TPCS2a and the mixture (25 μl) was injected into the tumours at time 0. The pure (naked) mRNA was injected at the same time point.
The injections were performed with gas anesthesia (Sevoflurane). The aim of the injection was to deposit a solution in the centre of the outer third of the tumour, avoiding the central core of the tumour. Insulin syringes were used to deliver the 25 μl of treatment.
The tumours in the PCI groups were illuminated (blue light from LumiSource) 60 min after mRNA/TPCS2a injection according to Table 5. The day after mRNA administration (i.e. around 20 hours after illumination) animals were killed and all tumours were removed and frozen for later homogenization and enzymatic assay for luciferase (Luciferase Assay System, Promega, Cat #E1500). After homogenization the amount of protein in the tumour extract was determined using the RC-DC Protein Assay (Bio-Rad Hercules, California, USA) and the luciferase enzymatic activity per mg tumour was calculated.

How did the “optimum illumination dose for PCI-enhanced mRNA delivery” value ([1]; 3 μg mRNA + 0.1 μg TPCS2a, red light 652 nm) turn out when “tetraphenyl chlorin disulfonate [TPCS2a]” was run?
The value was “around 2 J/cm^2”.

And the “effect on mRNA delivery versus mRNA alone (RLU/mg protein)” value ([1]; 3 μg mRNA + 0.1 μg TPCS2a, without illuminating the tumours)?
The value was “did not seem to enhance mRNA delivery significantly”.

And the “effect on mRNA delivery and translation (RLU/mg protein)” value ([1]; 3 μg mRNA L-7202 + 0.1 μg TPCS2a intratumoural, red light 0.1 to 4 J/cm^2, tumours harvested day after illumination)?
The value was “strong enhancement of mRNA delivery and translation”.

And the “enhancement of mRNA delivery by PCI, mean of all animals versus mRNA only” value ([2]; Example 1A, 12 sites each, 2 μg mRNA + 0.003 μg TPCS2a intradermal, 6 min blue light)?
The value was “about 3 times”.

And the “mean bio-luminescence for the PCI treated sites versus the mRNA only sites” value ([2]; Example 1A, animal 6, 2 μg luciferase mRNA L-6107 + 0.003 μg TPCS2a intradermal, 6 min blue light, imaged 4 h after illumination)?
Its value is “more than 5 times”.

And the “effect on mRNA delivery, 6 versus 3 min illumination” value ([2]; Example 1B, 3 μg mRNA, 0.003 μg TPCS2a, 6 and 3 min blue light)?
Its value is “comparable enhancement of mRNA delivery”.

And the “effect on mRNA delivery (luciferase expression, fold increase vs mRNA only)” value ([2]; Example 1B, 3 μg mRNA, TPCS2a dose of 0.0003 μg, blue light)?
Its value is “improved mRNA delivery”.

And the “effect on mRNA delivery (luciferase expression, fold increase vs mRNA only)” value ([2]; Example 1B, 3 μg mRNA, TPCS2a doses above 0.3 μg (PCI10, PCI3, PCI1), 6 min blue light)?
Its value is “strongly detrimental effect on mRNA delivery”.

What about the “effect on mRNA delivery (luciferase expression, fold increase vs mRNA only)” value ([2]; Example 1B, 3 μg mRNA, TPCS2a doses of 0.01 μg and below, 6 min blue light) of the same substance?
Its value is “significant enhancement of mRNA delivery”.

What about the “effect on mRNA delivery (luciferase expression, fold increase vs mRNA only)” value ([2]; Example 1B, 3 μg mRNA, TPCS2a doses of 0.3 to 0.03 μg, 6 min blue light) of the same substance?
Its value is “did not alter luciferase expression significantly”.

And the “effect on mRNA delivery (fold increase in luminescence vs mRNA only)” value ([2]; 0.5 min blue light)?
The value was “enhanced mRNA delivery”.

And the “effect on mRNA delivery (fold increase in luminescence vs mRNA only)” value ([2]; 4 min blue light)?
Its value is “enhanced mRNA delivery”.

What about the “improvement of mRNA translation over what was achieved with lipofectamine” value ([2]; Example 1D, 2 μg mRNA L-7202 intradermal, 0.003 μg TPCS2a, 6 min blue light, imaged 4 h after illumination, comparator 6 μl lipofectamine) of the same substance?
Its value is roughly 4 times.

And the “effect on luciferase mRNA delivery (luciferase enzymatic activity in tumour homogenates, single tumours)” value ([3]; 3 μg mRNA + 0.001-0.01 μg TPCS2a intratumoural, harvested 20 h after illumination)?
Its value is “substantially enhanced luciferase mRNA delivery”.

And the “PCI-induced improvement in mRNA delivery compared to mRNA without PCI (group means)” value ([3]; 0.003/6 min group: 3 μg mRNA + 0.003 μg TPCS2a)?
The value was “about 3 times”.

What about the “PCI-induced improvement in mRNA delivery compared to mRNA without PCI (group means)” value ([3]; 0.01/6 min group: 3 μg mRNA + 0.01 μg TPCS2a) of the same substance?
The value was “about 10 times”.
